Source: PMC4553520, “Laboratory and Simulated Field Bioassays to Evaluate Larvicidal Activity of Pinus densiflora Hydrodistillate, Its Constituents and Structurally Related Compounds against Aedes albopictus, Aedes aegypti and Culex pipiens pallens in Relation to Their Inhibitory Effects on Acetylcholinesterase Activity” (Insects, 2013)
Values after ≈ are worked out from the molar mass of the structure shown.

Legend:
[1] = test system: early third-instar larvae of Ae. albopictus; assay: Direct-contact mortality bioassay, Ae. albopictus larvae; settings: for LC50 (Ae. albopictus), mg/L (95% CL): early third-instar larvae, 24 h exposure, direct contact; for LC50: Aedes albopictus, 24 h, read-out: LC50 (Ae. albopictus), mg/L (95% CL)
Experimental: (§1) Direct-contact mortality bioassays were employed to evaluate the toxicity of all compounds, using early third-instar larvae of each mosquito species. Each compound was dissolved in methanol, and then further diluted in distilled water containing Triton X-100 (20 µL/L). Groups of 20 mosquito larvae of each species were put into separate paper cups (270 mL), each containing different compound solutions (250 mL). The toxicity of each compound was determined by repeating this experimental procedure with different concentrations, ranging from 5 to 200 mg/L. Temephos and fenthion served as standard references and were similarly formulated as well. Controls contained only methanol-Triton X-100 carrier solution in distilled water.
(§2) Both treated and control larvae were kept under the same conditions as those used for colony maintenance. […] Due to certain constraints arising from the number of available larvae, all necessary bioassays could not be conducted simultaneously and thus, treatments were conducted over a period of time, with a separate control treatment included each time. Freshly prepared compound solutions were used for each round of bioassays. All bioassays were repeated three times.
(§3) Concentration-mortality data were subjected to probit analysis using SAS [20]. […] Furthermore, for the compounds tested in AChE inhibition assays, a correlation analysis between their LC50 values and IC50 values was conducted using SAS [20].

[2] = test system: early third-instar larvae of Ae. aegypti; assay: Direct-contact mortality bioassay, Ae. aegypti larvae; settings: for LC50 (Ae. aegypti), mg/L (95% CL): early third-instar larvae, 24 h exposure, direct contact; for LC50: Aedes aegypti, 24 h, read-out: LC50 (Ae. aegypti), mg/L (95% CL)
Experimental: as §1, §2, §3

[3] = test system: early third-instar larvae of Cx. p. pallens; assay: Direct-contact mortality bioassay, laboratory-reared Cx. p. pallens larvae; settings: for LC50 (Cx p. pallens), mg/L (95% CL): laboratory-reared early third-instar larvae, 24 h exposure, direct contact; for LC50: Culex pipiens, 24 h, read-out: LC50 (Cx p. pallens), mg/L (95% CL)
Experimental: as §1, §2, §3

[4] = test system: field-collected larvae of Cx. p. pallens; assay: Semi-field bioassay, field-collected Cx. p. pallens larvae; settings: for LC50: Culex pipiens, 24 h, read-out: LC50, mg/L, Field-collected; for Resistance ratio: field-collected vs laboratory-reared Cx. p. pallens larvae (LC50 ratio)
Experimental: Larvae of wild mosquitoes were field-collected from irrigated rice fields in Yongin, Korea in early August 2012. A satellite view of the larvae collection site is included in Figure 1 [13].
The buckets were treated with test compounds and covered with nylon mesh screen to prevent other mosquitoes and insects from laying eggs. The buckets were then placed back at the initial collection site and were allowed to stand for 24 h, after which the mortality data were recorded. Temephos and fenthion served as standard references.
as §3

| Compound | LC50 (Ae. albopictus), mg/L (95% CL) [1] | LC50 (Ae. aegypti), mg/L (95% CL) [2] | LC50 (Cx p. pallens), mg/L (95% CL) [3] | LC50 [1] [mg/L] | LC50 [2] [mg/L] | LC50 [3] [mg/L] | LC50 [4] [mg/L] | Resistance ratio [4] |
| --- | --- | --- | --- | --- | --- | --- | --- | --- |
| C=C1CC[C@H]2O[C@]2(C)CC[C@@H]2[C@@H]1CC2(C)C [Caryophyllene oxide] | 107.62 (99.82–116.81) mg/L | 113.00 (104.54–123.59) mg/L | 126.28 (110.92–158.13) mg/L |  |  |  |  |  |
| COP(=S)(OC)Oc1ccc(SC)c(C)c1 [Fenthion, reference compound] |  |  |  | 0.012 (≈ 0.0431 µM) | 0.022 (≈ 0.079 µM) | 0.027 (≈ 0.097 µM) | 3.12 (≈ 11.2 µM) | 115.56 |
| CC(C)=CCC/C(C)=C/CO [Geraniol] |  |  |  | 68.2 (≈ 442 µM) | 73.4 (≈ 476 µM) | 57 (≈ 369 µM) |  |  |
| CC(=O)OC/C=C(\C)CCC=C(C)C [Geranyl acetate] |  |  |  | 33 | 21.4 | 30.3 |  |  |
| C=CC(C)(O)CCC=C(C)C (centres unmarked) [Linalool] |  |  |  | 129 (≈ 837 µM) | 113 (≈ 736 µM) | 144 (≈ 935 µM) |  |  |
| C=CC(C)(CCC=C(C)C)OC(C)=O (centres unmarked) [Linanyl acetate] |  |  |  | 98.1 | 97.8 | 97 |  |  |
| CC1CCC(C(C)C)C(O)C1 (centres unmarked) [Menthol] |  |  |  | 69.6 (≈ 445 µM) | 81.2 (≈ 520 µM) | 67.3 (≈ 430 µM) |  |  |
| C=CC(=C)CCC=C(C)C [Myrcene, β-myrcene] |  |  |  | 36 (≈ 264 µM) | 39.5 (≈ 290 µM) | 41.3 (≈ 303 µM) |  |  |
| CC(C)=CCC/C(C)=C\CO [Nerol] |  |  |  | 112 (≈ 723 µM) | 121 (≈ 783 µM) | 111 (≈ 723 µM) |  |  |
| COP(=S)(OC)Oc1ccc(Sc2ccc(OP(=S)(OC)OC)cc2)cc1 [Temephos, reference compound] |  |  |  | 0.01 (≈ 0.0214 µM) | 0.015 (≈ 0.0322 µM) | 0.013 (≈ 0.0279 µM) | 1.68 (≈ 3.6 µM) | 129.23 |
| CC(=O)OC(C)(C)C1CC=C(C)CC1 (centres unmarked) [Terpinyl acetate] | 72.39 (65.05–80.55) mg/L | 96.32 (89.89–103.04) mg/L | 58.27 (52.60–64.82) mg/L |  |  |  |  |  |
| Cc1cccc(C(C)C)c1 [m-cymene] |  |  |  | 62 (≈ 462 µM) | 69.7 (≈ 519 µM) | 59.4 (≈ 442 µM) |  |  |
| Cc1ccccc1C(C)C [o-cymene] | 48.57 (42.14–55.77) mg/L | 39.60 (33.25–46.71) mg/L | 47.78 (40.96–55.39) mg/L |  |  |  |  |  |
| Cc1ccc(C(C)C)cc1 [p-cymene] |  |  |  | 32.8 (≈ 245 µM) | 33.5 (≈ 249 µM) | 29.7 (≈ 221 µM) |  |  |
| CC1=CC[C@H](C(C)C)C=C1 [α-phellandrene] |  |  |  | 16.9 (≈ 124 µM) | 19.4 (≈ 142 µM) | 14 (≈ 103 µM) |  |  |
| CC1=CC=C(C(C)C)CC1 [α-terpinene] |  |  |  | 21.9 (≈ 161 µM) | 24.9 (≈ 182 µM) | 23.9 (≈ 175 µM) |  |  |
| CC1=CCC(=C(C)C)CC1 [α-terpinolene] |  |  |  | 13.9 (≈ 102 µM) | 15.3 (≈ 112 µM) | 10.6 (≈ 78 µM) | 13.9 (≈ 102 µM) | 1.31 |
| C=C1CC/C=C(\C)CC[C@@H]2[C@@H]1CC2(C)C [β-caryophyllene] |  |  |  | 39.5 (≈ 193 µM) | 38.6 (≈ 189 µM) | 47.8 (≈ 234 µM) |  |  |
| CC1=CCC(C(C)C)=CC1 [γ-terpinene] |  |  |  | 16.2 (≈ 119 µM) | 20.5 (≈ 150 µM) | 17.8 (≈ 130 µM) |  |  |
| CC1=CCC2C(C1)C2(C)C (centres unmarked) [δ-3-carene] |  |  |  | 9.33 (≈ 68.5 µM) | 12.1 (≈ 88.8 µM) | 10.1 (≈ 74.2 µM) | 12.7 (≈ 93 µM) | 1.25 |
| (−)-terpinen-4-ol | 92.16 (84.28–101.24) mg/L | 72.36 (66.33–78.22) mg/L | 85.66 (75.71–97.28) mg/L |  |  |  |  |  |
